According to the NIST ThermoML archive (doi:10.1016/j.tca.2017.02.015):
Numbers after ± are expanded uncertainties.

Tests used:
[1] = molar heat capacity at constant pressure; details: Liquid, Flow calorimetry
[2] = molar heat capacity at constant pressure; xn = mol fraction of the nth substance listed; details: Liquid, Flow calorimetry

CCCCCCCCCCCC(=O)OC [methyl dodecanoate]
[1]
Details	molar heat capacity at constant pressure [J/K/mol]
313.97 K, 100 kPa	442.6 ± 4.5
313.99 K, 4040 kPa	441.6 ± 4.5
314.06 K, 8070 kPa	439.5 ± 4.4
314.09 K, 12160 kPa	438.3 ± 4.4
314.14 K, 16180 kPa	436.9 ± 4.4
323.84 K, 12090 kPa	444.8 ± 4.5
323.88 K, 100 kPa	449.5 ± 4.5
323.93 K, 4070 kPa	447.2 ± 4.5
323.94 K, 16080 kPa	443.3 ± 4.5
324.01 K, 8060 kPa	445.8 ± 4.5
333.88 K, 100 kPa	456.4 ± 4.6
333.96 K, 4050 kPa	453.6 ± 4.6
334 K, 8050 kPa	452.1 ± 4.6
334.05 K, 12060 kPa	450.5 ± 4.6
334.11 K, 16170 kPa	448 ± 4.5

CCCCCCCCCC(=O)OC [methyl decanoate] + CCCCCCCCCCCC(=O)OC
[2], x2 = 0
Details	molar heat capacity at constant pressure [J/K/mol]
313.71 K, 100 kPa	383.9 ± 3.9
313.82 K, 4070 kPa	382.1 ± 3.9
313.83 K, 8030 kPa	380.5 ± 3.8
313.99 K, 12010 kPa	378.5 ± 3.8
314.01 K, 16140 kPa	376.6 ± 3.8
324.79 K, 100 kPa	387.6 ± 3.9
324.79 K, 4070 kPa	386 ± 3.9
325.01 K, 8030 kPa	384.4 ± 3.9
325.06 K, 12010 kPa	382.5 ± 3.9
325.2 K, 16140 kPa	379.3 ± 3.8
334.12 K, 100 kPa	393.2 ± 4
334.33 K, 8030 kPa	388.3 ± 3.9
334.53 K, 4070 kPa	390.3 ± 3.9
334.6 K, 12010 kPa	386.2 ± 3.9
334.84 K, 16140 kPa	384.2 ± 3.9

CCCCCCCCCC(=O)OC [methyl decanoate]
[1]
Details	molar heat capacity at constant pressure [J/K/mol]
313.71 K, 100 kPa	383.9 ± 3.9
313.82 K, 4070 kPa	382.1 ± 3.9
313.83 K, 8030 kPa	380.5 ± 3.8
313.99 K, 12010 kPa	378.5 ± 3.8
314.01 K, 16140 kPa	376.6 ± 3.8
324.79 K, 100 kPa	387.6 ± 3.9
324.79 K, 4070 kPa	386 ± 3.9
325.01 K, 8030 kPa	384.4 ± 3.9
325.06 K, 12010 kPa	382.5 ± 3.9
325.2 K, 16140 kPa	379.3 ± 3.8
334.12 K, 100 kPa	393.2 ± 4
334.33 K, 8030 kPa	388.3 ± 3.9
334.53 K, 4070 kPa	390.3 ± 3.9
334.6 K, 12010 kPa	386.2 ± 3.9
334.84 K, 16140 kPa	384.2 ± 3.9

CCCCCCCCCCCC(=O)OC [methyl dodecanoate] + CCCCCCCCCC(=O)OC
[2]
Details	molar heat capacity at constant pressure [J/K/mol]
313.71 K, 100 kPa, x1 = 0.5001	414.9 ± 4.2
313.82 K, 4060 kPa, x1 = 0.5001	413.3 ± 4.2
313.83 K, 8100 kPa, x1 = 0.5001	412.3 ± 4.2
313.97 K, 100 kPa, x1 = 1	442.6 ± 4.5
313.99 K, 4040 kPa, x1 = 1	441.6 ± 4.5
313.99 K, 12140 kPa, x1 = 0.5001	410.1 ± 4.1
314.01 K, 100 kPa, x1 = 0.6999	426.4 ± 4.3
314.01 K, 16150 kPa, x1 = 0.5001	408.9 ± 4.1
314.06 K, 8070 kPa, x1 = 1	439.5 ± 4.4
314.08 K, 4080 kPa, x1 = 0.6999	425.1 ± 4.3
314.09 K, 12160 kPa, x1 = 1	438.3 ± 4.4
314.14 K, 16180 kPa, x1 = 1	436.9 ± 4.4
314.17 K, 12080 kPa, x1 = 0.6999	421.2 ± 4.3
314.18 K, 8140 kPa, x1 = 0.6999	422.7 ± 4.3
314.21 K, 16150 kPa, x1 = 0.6999	419.4 ± 4.2
314.37 K, 100 kPa, x1 = 0.3001	403.7 ± 4.1
314.53 K, 4090 kPa, x1 = 0.3001	402.2 ± 4.1
314.71 K, 8010 kPa, x1 = 0.3001	400.6 ± 4
314.95 K, 12020 kPa, x1 = 0.3001	397.7 ± 4
315.06 K, 16080 kPa, x1 = 0.3001	395.6 ± 4
323.53 K, 100 kPa, x1 = 0.3001	412 ± 4.2
323.58 K, 4100 kPa, x1 = 0.3001	409.5 ± 4.1
323.69 K, 8070 kPa, x1 = 0.3001	406.9 ± 4.1
323.84 K, 12080 kPa, x1 = 0.3001	403.9 ± 4.1
323.84 K, 12090 kPa, x1 = 1	444.8 ± 4.5
323.88 K, 100 kPa, x1 = 1	449.5 ± 4.5
323.93 K, 4070 kPa, x1 = 1	447.2 ± 4.5
323.94 K, 16080 kPa, x1 = 1	443.3 ± 4.5
324.01 K, 8060 kPa, x1 = 1	445.8 ± 4.5
324.05 K, 100 kPa, x1 = 0.6999	435.5 ± 4.4
324.08 K, 4120 kPa, x1 = 0.6999	433.4 ± 4.4
324.13 K, 8050 kPa, x1 = 0.6999	431.3 ± 4.4
324.19 K, 12080 kPa, x1 = 0.6999	428.2 ± 4.3
324.24 K, 16120 kPa, x1 = 0.6999	426.4 ± 4.3
324.39 K, 16190 kPa, x1 = 0.3001	400.5 ± 4
324.79 K, 100 kPa, x1 = 0.5001	424.4 ± 4.3
324.79 K, 4150 kPa, x1 = 0.5001	421.6 ± 4.3
325.01 K, 8140 kPa, x1 = 0.5001	418.7 ± 4.2
325.06 K, 12110 kPa, x1 = 0.5001	416.1 ± 4.2
325.2 K, 16230 kPa, x1 = 0.5001	413.7 ± 4.2
333.55 K, 100 kPa, x1 = 0.3001	418.3 ± 4.2
333.71 K, 100 kPa, x1 = 0.6999	442.8 ± 4.5
333.76 K, 4130 kPa, x1 = 0.3001	415.8 ± 4.2
333.79 K, 8110 kPa, x1 = 0.3001	413.5 ± 4.2
333.88 K, 100 kPa, x1 = 1	456.4 ± 4.6
333.96 K, 4050 kPa, x1 = 1	453.6 ± 4.6
333.97 K, 12160 kPa, x1 = 0.6999	434.7 ± 4.4
333.98 K, 4150 kPa, x1 = 0.6999	440.9 ± 4.5
334 K, 8050 kPa, x1 = 1	452.1 ± 4.6
334.03 K, 12080 kPa, x1 = 0.3001	411.7 ± 4.2
334.04 K, 8040 kPa, x1 = 0.6999	439 ± 4.4
334.04 K, 16170 kPa, x1 = 0.6999	431.9 ± 4.4
334.05 K, 12060 kPa, x1 = 1	450.5 ± 4.6
334.11 K, 16170 kPa, x1 = 1	448 ± 4.5
334.12 K, 100 kPa, x1 = 0.5001	431.7 ± 4.4
334.21 K, 16110 kPa, x1 = 0.3001	408.4 ± 4.1
334.33 K, 8140 kPa, x1 = 0.5001	425.5 ± 4.3
334.53 K, 4120 kPa, x1 = 0.5001	428.8 ± 4.3
334.6 K, 12200 kPa, x1 = 0.5001	423.1 ± 4.3
334.84 K, 16030 kPa, x1 = 0.5001	420.7 ± 4.3
